Data: US20060286105A1, “Tgf-beta antagonists combined with renin-angiotensin-aldosteron-system antagonists for treating renal insufficiency” (priority 2003, published 2006)

Key:
diabetic rats [1] = assay: Urinary albumin excretion by ELISA, early phase treatment (Example 8); format: in vivo, rat; settings: weeks 27 to 52, at 52 weeks, mean ± SE
Procedure: Male Sprague-Dawley rats with initial body weight of 250-275 g were studied. All animals were allowed free access to standard diet and tap water. Diabetes was induced by a single intravenous injection of streptozotocin (60 mg/kg body weight). […] Blood glucose levels were monitored at least once a week in all diabetic rats and occasionally in control animals for comparison. Diabetic rats were divided into 3 groups (n=6 each): group 1 received a control antibody, 13C4; groups 2 and 3 received 1D11 (0.5 mg/kg i.p. three times a week) or enalapril (15 mg/l in the drinking water), respectively from 27 to 52 weeks; group 4 was normal rats. […] The statistical analysis was performed using the nonparametric Kruskal-Wallis test for multiple comparisons.

diabetic rats [2] = assay: Systolic blood pressure, late phase treatment (Example 9); format: in vivo, rat; settings: mean ± SE
Procedure: Systolic blood pressure was measured every two months after diabetic induction by the tail cuff method. […] Five normal rats were used as controls. Systolic blood pressure was measured every two months after diabetes induction. […] All measurements and data analysis were performed as described in Example 8.

diabetic rats [3] = assay: Renal histology, late phase treatment (Example 9); format: in vivo, rat; settings: weeks 52 to 61, 61 weeks, mean ± SE
Procedure: Renal morphology was assessed as glomerulosclerosis, interstitial inflammation and tubular damage. Specifically, the removed kidneys were fixed overnight in Dubosq-Brazil, dehydrated in alcohol, and embedded in paraffin. Kidney samples were sectioned at 3-μm intervals, and the sections were stained with Masson's trichrome, hematoxylin and eosin, or periodic-acid Schiff reagent (PAS stain). […] All renal biopsies were analyzed by the same pathologist who was unaware of the nature of the experimental groups. […] Five normal rats were used as controls. Systolic blood pressure was measured every two months after diabetes induction. […] All measurements and data analysis were performed as described in Example 8.

diabetic rats [4] = assay: Proteinuria, late phase treatment of diabetic nephropathy (Example 9); format: in vivo, rat; settings: therapy weeks 52 to 61 after STZ, 1D11 0.5 mg/kg i.p. 3x/week, enalapril 15 mg/l drinking water, FIG. 8
Procedure: (§1) Urinary excretion of proteins was measured in 24 hr urine samples collected in metabolic cages at baseline, 18, 27, 36, 45, and 52 weeks by the modified Coomassie blue G dye-binding assay for proteins.
Diabetic rats were kept as described in Example 8 and were divided into 4 groups (n=5-6 each) and given from 52 to 61 weeks after the diabetis induction the following: the irrelevant antibody 13C4; the anti-TGF-β antibody 1D11 (0.5 mg/kg i.p. three times a week); the ACE inhibitor enalapril (15 mg/l in the drinking water), or the combination of 1D11 and enalapril. Five normal rats were used as controls. Systolic blood pressure was measured every two months after diabetes induction. Urinary excretion of proteins was measured in 24 hour urine samples collected in metabolic cages at baseline, 18, 27, 36, 45, 52, and 61 weeks. All measurements and data analysis were performed as described in Example 8.

diabetic rats [5] = assay: Renal histology, early phase treatment (Example 8); format: in vivo, rat; settings: weeks 27 to 52, 52 weeks, mean ± SE
Procedure: Male Sprague-Dawley rats with initial body weight of 250-275 g were studied. All animals were allowed free access to standard diet and tap water. Diabetes was induced by a single intravenous injection of streptozotocin (60 mg/kg body weight). […] Blood glucose levels were monitored at least once a week in all diabetic rats and occasionally in control animals for comparison. […] Renal morphology was assessed as glomerulosclerosis, interstitial inflammation and tubular damage. Specifically, the removed kidneys were fixed overnight in Dubosq-Brazil, dehydrated in alcohol, and embedded in paraffin. Kidney samples were sectioned at 3-μm intervals, and the sections were stained with Masson's trichrome, hematoxylin and eosin, or periodic-acid Schiff reagent (PAS stain). […] All renal biopsies were analyzed by the same pathologist who was unaware of the nature of the experimental groups. The statistical analysis was performed using the nonparametric Kruskal-Wallis test for multiple comparisons.

diabetic rats [6] = assay: Serum creatinine, early phase treatment (Example 8); format: in vivo, rat; settings: weeks 27 to 52, 52 weeks, mean ± SE
Procedure: Male Sprague-Dawley rats with initial body weight of 250-275 g were studied. All animals were allowed free access to standard diet and tap water. Diabetes was induced by a single intravenous injection of streptozotocin (60 mg/kg body weight). […] Blood glucose levels were monitored at least once a week in all diabetic rats and occasionally in control animals for comparison. […] Serum creatinine was measured at the end of the study by autoanalyzer (CX5 Beckman). The statistical analysis was performed using the nonparametric Kruskal-Wallis test for multiple comparisons.

diabetic rats [7] = assay: Serum creatinine, late phase treatment (Example 9); format: in vivo, rat; settings: weeks 52 to 61, 61 weeks, mean ± SE
Procedure: Serum creatinine was measured at the end of the study by autoanalyzer (CX5 Beckman). […] Five normal rats were used as controls. Systolic blood pressure was measured every two months after diabetes induction. […] All measurements and data analysis were performed as described in Example 8.

diabetic rats [8] = assay: Urinary albumin excretion, late phase treatment (Example 9); format: in vivo, rat; settings: weeks 52 to 61, at 61 weeks, mean ± SE
Procedure: Five normal rats were used as controls. Systolic blood pressure was measured every two months after diabetes induction. […] All measurements and data analysis were performed as described in Example 8.

diabetic rats [9] = assay: Systolic blood pressure by tail cuff, early phase treatment (Example 8); format: in vivo, rat; settings: mean ± SE
Procedure: Male Sprague-Dawley rats with initial body weight of 250-275 g were studied. All animals were allowed free access to standard diet and tap water. Diabetes was induced by a single intravenous injection of streptozotocin (60 mg/kg body weight). […] Blood glucose levels were monitored at least once a week in all diabetic rats and occasionally in control animals for comparison. Diabetic rats were divided into 3 groups (n=6 each): group 1 received a control antibody, 13C4; groups 2 and 3 received 1D11 (0.5 mg/kg i.p. three times a week) or enalapril (15 mg/l in the drinking water), respectively from 27 to 52 weeks; group 4 was normal rats. Systolic blood pressure was measured every two months after diabetic induction by the tail cuff method. The statistical analysis was performed using the nonparametric Kruskal-Wallis test for multiple comparisons.

diabetic rats [10] = assay: Proteinuria, early phase treatment of diabetic nephropathy (Example 8); format: in vivo, rat; settings: therapy weeks 27 to 52 after STZ, 1D11 0.5 mg/kg i.p. 3x/week, enalapril 15 mg/l drinking water, FIG. 7
Procedure: Male Sprague-Dawley rats with initial body weight of 250-275 g were studied. All animals were allowed free access to standard diet and tap water. Diabetes was induced by a single intravenous injection of streptozotocin (60 mg/kg body weight). The presence of diabetes was confirmed 2 days later by the measurement of the tail blood glucose level with a reflectance meter. Diabetic rats received daily evening injections of insulin in doses individually adjusted to maintain a blood glucose level between 200 and 450 mg/dl. Blood glucose levels were monitored at least once a week in all diabetic rats and occasionally in control animals for comparison.
Diabetic rats were divided into 3 groups (n=6 each): group 1 received a control antibody, 13C4; groups 2 and 3 received 1D11 (0.5 mg/kg i.p. three times a week) or enalapril (15 mg/l in the drinking water), respectively from 27 to 52 weeks; group 4 was normal rats.
as §1
The statistical analysis was performed using the nonparametric Kruskal-Wallis test for multiple comparisons.

diabetic rats [11] = assay: Glomerular sclerosis, renal histology in diabetic rats (Example 4); format: in vivo, rat; settings: uninephrectomized STZ-diabetic rats; treated months 4-8; antibody 0.5 mg/kg i.p. 3x/week, lisinopril 12.5 mg/l drinking water; FIG. 3
Procedure: Animals were treated as described in Example 1. At the end of the study, rat kidneys were harvested and fixed with 5% buffered formalin solution, embedded in paraffin, sectioned and stained with periodic acid-Schiff (PAS) for light microscopy analyses.
Glomerular diameters were measured and the degree of matrix expansion and glomerular injury was assessed on a minimum of 100 glomeruli/section. The degree of glomerulosclerosis was scored as previously described (Raij et al. (1984) Kidney Int., 26:137-143). The percentage of glomerular sclerosis was determined by an unbiased, trained pathologist who recorded pathologic changes using a 0-4 scale (score of 0 indicates no damage; 1+ indicates changes affecting less than 25% of the samples; 2+ indicates changes affecting 25- 50% of the sample; 3+, changes affecting 50-75% of the sample; 4+ changes affecting 75-100% of the sample).

diabetic rats [12] = assay: Systolic blood pressure by tail plethysmography in diabetic rats (Example 3); format: in vivo, rat; settings: uninephrectomized STZ-diabetic rats; treated months 4-8; antibody 0.5 mg/kg i.p. 3x/week, lisinopril 12.5 mg/l drinking water; FIG. 2
Procedure: Male Sprague-Dawley rats with initial body weights of 250 to 300 g were used in this study. Animal care and treatment were conducted in accordance with the U.S. […] All animals were housed in a room in which the temperature was kept constant on a 12-hour dark/12-hour light cycle and allowed free access to standard diet containing 20% protein by weight and tap water. The animals were subjected to unilateral nephrectomy under anaesthesia one week prior to the induction of diabetes to accelerate the onset of renal disease. The animals were rendered diabetic by a single intravenous (i.v.) injection of streptozotocin (STZ, Zanosar, Upjohn, Kalamazoo, Mich.; 60 mg/kg body weight). Food and water consumption, weight gain and the blood glucose levels were monitored to determine the degree of diabetes. The blood was obtained from the tip of the tails and analyzed by a modified glucose dehydrogenase method. […] Four months, after the induction of diabetes, animals were divided into seven groups of eight (unless otherwise indicated), which were treated for the next four months as follows: Animals were treated as described in Example 1. Systolic blood pressure at the end of the treatment period was recorded by tail plethysmography in conscious rats as described in Pfeffer et al.

TGF-β = assay: Antigen affinity and isoform specificity of anti-TGF-β antibodies; format: binding
Text: The epitopes for 1[…] al. (1998) J. Immunol., 142:1536-1541) and CAT192 have been mapped to the C-terminal portion of mature TGF-β.

CCOC(=O)[C@H](CCc1ccccc1)N[C@@H](C)C(=O)N1CCC[C@H]1C(=O)O [enalapril, 1-[N-[(S)-1-carboxy-3-phenylpropyl]-L-alanyl]-L-proline-1′-ethyl ester]
Urinary albumin excretion (diabetic rats [1]): 4.70 ± 0.83*°# mg/day
Systolic blood pressure (diabetic rats [2]; late phase study, week 36, before therapy (given weeks 52 to 61)): 158.33 ± 2.79 mmHg
Systolic blood pressure (diabetic rats [2]; late phase study, week 52, start of therapy (given weeks 52 to 61)): 165.00 ± 2.89 mmHg
Systolic blood pressure (diabetic rats [2]; late phase treatment, weeks 52 to 61, week 61): 135.00 ± 1.58**°° mmHg
Interstitial inflammation (score) (diabetic rats [3]; graded 0 to 4+): 0.60 ± 0.24 score
Tubular damage (score) (diabetic rats [3]; graded 0 to 4+): 0.60 ± 0.24 score
Glomeruli with sclerotic changes (diabetic rats [3]): 4.60 ± 2.19%
proteinuria (in words) (diabetic rats [4]): similarly efficacious in reducing proteinuria
Interstitial inflammation (score) (diabetic rats [5]; graded 0 to 4+): 0.33 ± 0.21 score
Tubular damage (score) (diabetic rats [5]; graded 0 to 4+): 0.50 ± 0.22 score
Glomeruli with sclerotic changes (diabetic rats [5]): 1.53 ± 0.32° %
Serum creatinine (diabetic rats [6]): 0.49 ± 0.07 mg/dL
Serum creatinine (diabetic rats [7]): 0.56 ± 0.07 mg/dL
Urinary albumin excretion (diabetic rats [8]): 30.40 ± 15.08 mg/day
Systolic blood pressure (diabetic rats [9]; early phase study, week 27, before treatment (baseline of group)): 148.33 ± 2.47 mmHg
Systolic blood pressure (diabetic rats [9]; early phase treatment from week 27, week 36): 127.50 ± 2.81**°° mmHg
Systolic blood pressure (diabetic rats [9]; early phase treatment from week 27, week 45): 118.33 ± 2.47°° mmHg
Systolic blood pressure (diabetic rats [9]; early phase treatment from week 27, week 52): 117.50 ± 2.14°° mmHg
proteinuria (in words) (diabetic rats [10]): similarly efficacious in reducing proteinuria

NCCCC[C@H](N[C@@H](CCc1ccccc1)C(=O)O)C(=O)N1CCC[C@H]1C(=O)O [lisinopril, 1-[N2-[(S)-1-carboxy-3-phenylpropyl]-L-lysyl]-L-proline]
percentage of glomeruli with sclerotic changes (in words) (diabetic rats [11]): limited the percentage of glomeruli with sclerosis to a similar degree as 1D 11
systolic blood pressure at end of treatment (diabetic rats [12]): limited blood pressure increase to a similar extent as 1D11

CAT192: fully human monoclonal anti-TGF-β1 antibody generated by phage display, described in WO 00/66631
systolic blood pressure at end of treatment (diabetic rats [12]): displayed an anti-hypertensive effect
Kd (TGF-β): ~8.4 pM
TGF-β isoform binding specificity (TGF-β): specifically binds TGF-β only
